In ChEMBL document CHEMBL4043168, “The design and SAR of a novel series of 2-aminopyridine based LRRK2 inhibitors” (Bioorg Med Chem Lett, 2017):

How the values were obtained:
[1] = biological target: Cyclin-dependent kinase 5 (Homo sapiens) (UniProt Q00535); assay: Inhibition of CDK5 labeling at conserved Lys2 (DLKPQNLLINR) in human PBMC at 1 uM
[2] = biological target: T1, Mitogen-activated protein kinase kinase kinase 6 (Homo sapiens) (UniProt O95382); assay: Inhibition of MAP3K6 conserved Lys1 (IAIKEIPER) in human PBMC at 0.1 uM
T1 sequence (whole entry): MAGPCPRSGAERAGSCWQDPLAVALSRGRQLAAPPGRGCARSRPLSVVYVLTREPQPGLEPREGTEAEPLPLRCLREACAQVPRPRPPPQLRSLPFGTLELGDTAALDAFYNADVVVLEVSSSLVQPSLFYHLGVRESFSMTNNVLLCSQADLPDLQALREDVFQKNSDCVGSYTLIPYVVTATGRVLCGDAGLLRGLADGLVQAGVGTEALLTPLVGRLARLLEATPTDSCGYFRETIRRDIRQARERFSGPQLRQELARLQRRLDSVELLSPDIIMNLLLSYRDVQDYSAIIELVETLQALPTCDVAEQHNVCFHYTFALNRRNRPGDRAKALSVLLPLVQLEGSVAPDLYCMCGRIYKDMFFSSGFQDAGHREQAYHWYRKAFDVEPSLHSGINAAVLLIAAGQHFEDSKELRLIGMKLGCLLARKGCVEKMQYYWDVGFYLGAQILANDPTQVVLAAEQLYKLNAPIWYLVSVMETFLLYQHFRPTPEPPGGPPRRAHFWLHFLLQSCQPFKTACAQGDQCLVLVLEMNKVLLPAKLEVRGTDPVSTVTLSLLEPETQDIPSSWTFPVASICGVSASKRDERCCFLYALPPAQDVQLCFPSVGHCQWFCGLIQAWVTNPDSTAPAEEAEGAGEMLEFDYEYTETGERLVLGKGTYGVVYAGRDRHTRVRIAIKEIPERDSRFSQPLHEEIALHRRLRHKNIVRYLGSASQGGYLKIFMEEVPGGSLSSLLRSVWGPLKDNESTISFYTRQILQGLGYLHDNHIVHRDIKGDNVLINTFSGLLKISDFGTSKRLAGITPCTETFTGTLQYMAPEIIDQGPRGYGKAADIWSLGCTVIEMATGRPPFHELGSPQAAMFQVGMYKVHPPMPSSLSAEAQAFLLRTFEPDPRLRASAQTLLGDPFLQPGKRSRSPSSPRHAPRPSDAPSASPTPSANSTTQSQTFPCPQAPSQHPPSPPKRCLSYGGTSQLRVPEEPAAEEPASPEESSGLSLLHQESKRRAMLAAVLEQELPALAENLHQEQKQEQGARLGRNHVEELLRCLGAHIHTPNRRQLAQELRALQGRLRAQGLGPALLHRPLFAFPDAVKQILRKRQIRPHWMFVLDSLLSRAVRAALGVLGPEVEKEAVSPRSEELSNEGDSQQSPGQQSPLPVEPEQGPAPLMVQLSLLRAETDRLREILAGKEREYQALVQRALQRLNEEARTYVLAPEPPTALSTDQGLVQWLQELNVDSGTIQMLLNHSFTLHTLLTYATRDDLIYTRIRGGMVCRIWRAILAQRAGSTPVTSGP

[3] = Intrinsic clearance in rat liver microsomes; format: ADME, microsome; conditions: read-out: CLH (converted)
[4] = biological target: RAC-alpha serine/threonine-protein kinase (Homo sapiens) (UniProt P31749); assay: Inhibition of AKT1 labeling at ATP binding site (GTFGKVILVK) in human PBMC at 1 uM
Sequence of RAC-alpha serine/threonine-protein kinase (Homo sapiens) (P31749 whole entry): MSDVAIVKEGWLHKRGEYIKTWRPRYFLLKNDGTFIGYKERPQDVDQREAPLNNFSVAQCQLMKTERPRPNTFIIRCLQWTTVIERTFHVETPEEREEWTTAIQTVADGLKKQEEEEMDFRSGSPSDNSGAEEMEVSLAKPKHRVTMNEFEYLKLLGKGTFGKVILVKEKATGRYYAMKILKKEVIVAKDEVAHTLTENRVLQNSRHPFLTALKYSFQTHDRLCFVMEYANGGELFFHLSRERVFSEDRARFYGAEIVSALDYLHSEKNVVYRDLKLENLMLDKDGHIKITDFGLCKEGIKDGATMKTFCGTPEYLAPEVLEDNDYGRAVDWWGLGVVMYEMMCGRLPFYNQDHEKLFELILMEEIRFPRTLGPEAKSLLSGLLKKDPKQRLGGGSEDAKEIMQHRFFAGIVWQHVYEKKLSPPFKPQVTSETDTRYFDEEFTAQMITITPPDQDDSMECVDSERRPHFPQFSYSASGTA

[5] = biological target: Mitogen-activated protein kinase 12 (Homo sapiens) (UniProt P53778); assay: Inhibition of p38g conserved Lys2 (DLKPGNLAVNEDCELK) in human PBMC at 1 uM
Sequence of Mitogen-activated protein kinase 12 (Homo sapiens) (P53778 whole entry): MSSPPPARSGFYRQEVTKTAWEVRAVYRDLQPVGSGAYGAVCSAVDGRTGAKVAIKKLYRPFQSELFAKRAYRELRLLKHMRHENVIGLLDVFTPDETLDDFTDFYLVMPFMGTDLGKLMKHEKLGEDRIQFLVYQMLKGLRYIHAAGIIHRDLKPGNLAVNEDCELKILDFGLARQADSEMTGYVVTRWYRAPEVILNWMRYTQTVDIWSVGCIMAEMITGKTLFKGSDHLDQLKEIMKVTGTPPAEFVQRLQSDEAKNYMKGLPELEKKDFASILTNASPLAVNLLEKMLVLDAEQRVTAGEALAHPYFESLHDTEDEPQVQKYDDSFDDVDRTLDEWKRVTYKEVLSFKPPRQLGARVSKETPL

[6] = biological target: Serine/threonine-protein kinase SMG1 (Homo sapiens) (UniProt Q96Q15); assay: Inhibition of SMG1 ATP binding site (SYPYLFKGLEDLHLDER) in human PBMC at 0.1 uM
Sequence of Serine/threonine-protein kinase SMG1 (Homo sapiens) (Q96Q15 whole entry, the tested form may be a part): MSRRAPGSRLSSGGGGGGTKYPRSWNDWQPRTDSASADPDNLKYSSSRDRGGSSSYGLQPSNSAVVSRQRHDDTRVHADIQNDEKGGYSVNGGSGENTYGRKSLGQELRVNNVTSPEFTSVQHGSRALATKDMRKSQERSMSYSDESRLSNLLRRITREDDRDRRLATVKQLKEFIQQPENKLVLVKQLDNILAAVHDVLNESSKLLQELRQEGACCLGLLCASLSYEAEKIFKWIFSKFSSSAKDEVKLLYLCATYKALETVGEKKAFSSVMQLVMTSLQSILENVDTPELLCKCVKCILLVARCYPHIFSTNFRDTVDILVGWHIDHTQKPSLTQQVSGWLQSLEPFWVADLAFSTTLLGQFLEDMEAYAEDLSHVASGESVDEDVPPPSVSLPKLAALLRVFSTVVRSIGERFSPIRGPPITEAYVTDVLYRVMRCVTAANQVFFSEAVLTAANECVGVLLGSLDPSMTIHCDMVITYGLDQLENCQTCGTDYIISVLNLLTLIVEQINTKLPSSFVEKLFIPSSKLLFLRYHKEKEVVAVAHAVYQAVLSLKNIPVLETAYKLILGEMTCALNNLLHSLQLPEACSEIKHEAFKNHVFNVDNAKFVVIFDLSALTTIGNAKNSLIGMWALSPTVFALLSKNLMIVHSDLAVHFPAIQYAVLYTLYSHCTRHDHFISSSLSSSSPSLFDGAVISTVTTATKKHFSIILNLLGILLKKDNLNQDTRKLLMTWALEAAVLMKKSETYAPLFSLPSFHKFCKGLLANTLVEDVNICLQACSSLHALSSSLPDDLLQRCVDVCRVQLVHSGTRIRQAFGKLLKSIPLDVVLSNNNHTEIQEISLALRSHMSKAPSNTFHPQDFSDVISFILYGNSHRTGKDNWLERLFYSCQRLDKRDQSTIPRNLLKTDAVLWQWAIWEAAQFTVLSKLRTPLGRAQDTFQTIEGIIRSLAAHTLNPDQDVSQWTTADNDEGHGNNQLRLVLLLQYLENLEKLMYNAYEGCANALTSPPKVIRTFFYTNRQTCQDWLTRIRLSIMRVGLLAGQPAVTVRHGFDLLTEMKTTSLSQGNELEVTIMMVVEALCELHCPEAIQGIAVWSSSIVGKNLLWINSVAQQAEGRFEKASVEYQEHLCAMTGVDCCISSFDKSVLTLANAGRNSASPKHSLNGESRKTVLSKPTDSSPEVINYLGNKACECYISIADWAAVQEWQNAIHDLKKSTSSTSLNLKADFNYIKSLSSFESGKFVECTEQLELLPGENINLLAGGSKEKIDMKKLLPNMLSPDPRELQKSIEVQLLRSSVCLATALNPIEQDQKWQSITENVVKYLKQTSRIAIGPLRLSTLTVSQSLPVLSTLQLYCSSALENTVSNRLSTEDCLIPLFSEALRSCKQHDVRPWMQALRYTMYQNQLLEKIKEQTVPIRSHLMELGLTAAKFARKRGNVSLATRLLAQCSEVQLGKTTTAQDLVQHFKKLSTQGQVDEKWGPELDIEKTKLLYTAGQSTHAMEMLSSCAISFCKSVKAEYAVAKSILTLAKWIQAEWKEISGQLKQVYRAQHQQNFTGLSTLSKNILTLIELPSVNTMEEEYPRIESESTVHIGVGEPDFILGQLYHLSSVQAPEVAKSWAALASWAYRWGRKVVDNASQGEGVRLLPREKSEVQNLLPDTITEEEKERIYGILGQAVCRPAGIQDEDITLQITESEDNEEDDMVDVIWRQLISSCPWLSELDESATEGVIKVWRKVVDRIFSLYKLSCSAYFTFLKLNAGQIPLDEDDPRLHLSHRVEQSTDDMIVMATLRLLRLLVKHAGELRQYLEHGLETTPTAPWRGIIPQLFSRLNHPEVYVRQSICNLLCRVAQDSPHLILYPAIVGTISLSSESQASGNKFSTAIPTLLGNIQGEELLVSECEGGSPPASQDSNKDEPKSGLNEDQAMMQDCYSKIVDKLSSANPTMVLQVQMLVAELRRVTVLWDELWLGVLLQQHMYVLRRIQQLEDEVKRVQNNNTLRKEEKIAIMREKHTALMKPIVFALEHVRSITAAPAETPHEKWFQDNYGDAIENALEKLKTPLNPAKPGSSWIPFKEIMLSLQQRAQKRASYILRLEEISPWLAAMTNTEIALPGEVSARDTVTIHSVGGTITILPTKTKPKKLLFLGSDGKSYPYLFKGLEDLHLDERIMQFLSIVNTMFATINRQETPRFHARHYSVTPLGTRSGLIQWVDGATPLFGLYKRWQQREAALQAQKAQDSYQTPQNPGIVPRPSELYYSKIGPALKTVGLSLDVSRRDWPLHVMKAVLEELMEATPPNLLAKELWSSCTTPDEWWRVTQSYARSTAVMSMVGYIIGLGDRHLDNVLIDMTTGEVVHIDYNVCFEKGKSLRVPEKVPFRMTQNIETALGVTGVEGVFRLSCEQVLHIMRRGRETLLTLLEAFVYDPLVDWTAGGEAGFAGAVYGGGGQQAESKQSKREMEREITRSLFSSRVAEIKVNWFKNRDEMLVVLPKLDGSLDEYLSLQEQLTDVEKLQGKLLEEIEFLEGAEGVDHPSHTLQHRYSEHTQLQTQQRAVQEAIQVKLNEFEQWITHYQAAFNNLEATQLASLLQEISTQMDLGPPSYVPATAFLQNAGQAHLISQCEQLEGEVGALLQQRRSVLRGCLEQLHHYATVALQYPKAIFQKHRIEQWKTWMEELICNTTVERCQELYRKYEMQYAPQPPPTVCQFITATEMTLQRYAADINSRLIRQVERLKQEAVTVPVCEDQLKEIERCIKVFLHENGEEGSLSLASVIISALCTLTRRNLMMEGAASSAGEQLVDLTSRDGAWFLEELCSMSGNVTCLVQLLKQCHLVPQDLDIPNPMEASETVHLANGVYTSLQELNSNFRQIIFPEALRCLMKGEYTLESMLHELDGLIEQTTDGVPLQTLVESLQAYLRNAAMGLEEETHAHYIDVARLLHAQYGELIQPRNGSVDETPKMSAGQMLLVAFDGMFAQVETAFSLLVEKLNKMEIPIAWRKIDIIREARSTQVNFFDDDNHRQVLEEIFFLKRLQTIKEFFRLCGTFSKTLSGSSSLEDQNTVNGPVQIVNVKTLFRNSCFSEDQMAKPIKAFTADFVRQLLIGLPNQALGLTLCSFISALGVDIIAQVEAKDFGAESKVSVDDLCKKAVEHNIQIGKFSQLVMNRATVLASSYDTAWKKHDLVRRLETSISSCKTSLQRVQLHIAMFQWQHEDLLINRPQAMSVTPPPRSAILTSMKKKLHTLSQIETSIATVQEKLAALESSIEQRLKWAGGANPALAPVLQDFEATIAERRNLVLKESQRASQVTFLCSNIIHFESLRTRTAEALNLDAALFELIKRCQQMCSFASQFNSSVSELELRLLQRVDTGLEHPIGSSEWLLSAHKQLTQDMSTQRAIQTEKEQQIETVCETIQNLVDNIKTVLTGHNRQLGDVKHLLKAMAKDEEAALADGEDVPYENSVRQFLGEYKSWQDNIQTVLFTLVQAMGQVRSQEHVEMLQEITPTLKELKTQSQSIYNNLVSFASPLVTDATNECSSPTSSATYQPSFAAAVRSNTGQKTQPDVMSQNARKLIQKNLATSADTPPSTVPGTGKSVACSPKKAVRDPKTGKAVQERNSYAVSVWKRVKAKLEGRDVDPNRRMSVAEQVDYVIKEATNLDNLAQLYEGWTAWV

[7] = biological target: T2, Tyrosine-protein kinase JAK3 (Homo sapiens) (UniProt P52333); assay: Inhibition of JAK3 domain2 conserved Lys1 (YDPLGDNTGALVAVKQLQHSGPDQQR) in human PBMC at 1 uM
T2 sequence (whole entry): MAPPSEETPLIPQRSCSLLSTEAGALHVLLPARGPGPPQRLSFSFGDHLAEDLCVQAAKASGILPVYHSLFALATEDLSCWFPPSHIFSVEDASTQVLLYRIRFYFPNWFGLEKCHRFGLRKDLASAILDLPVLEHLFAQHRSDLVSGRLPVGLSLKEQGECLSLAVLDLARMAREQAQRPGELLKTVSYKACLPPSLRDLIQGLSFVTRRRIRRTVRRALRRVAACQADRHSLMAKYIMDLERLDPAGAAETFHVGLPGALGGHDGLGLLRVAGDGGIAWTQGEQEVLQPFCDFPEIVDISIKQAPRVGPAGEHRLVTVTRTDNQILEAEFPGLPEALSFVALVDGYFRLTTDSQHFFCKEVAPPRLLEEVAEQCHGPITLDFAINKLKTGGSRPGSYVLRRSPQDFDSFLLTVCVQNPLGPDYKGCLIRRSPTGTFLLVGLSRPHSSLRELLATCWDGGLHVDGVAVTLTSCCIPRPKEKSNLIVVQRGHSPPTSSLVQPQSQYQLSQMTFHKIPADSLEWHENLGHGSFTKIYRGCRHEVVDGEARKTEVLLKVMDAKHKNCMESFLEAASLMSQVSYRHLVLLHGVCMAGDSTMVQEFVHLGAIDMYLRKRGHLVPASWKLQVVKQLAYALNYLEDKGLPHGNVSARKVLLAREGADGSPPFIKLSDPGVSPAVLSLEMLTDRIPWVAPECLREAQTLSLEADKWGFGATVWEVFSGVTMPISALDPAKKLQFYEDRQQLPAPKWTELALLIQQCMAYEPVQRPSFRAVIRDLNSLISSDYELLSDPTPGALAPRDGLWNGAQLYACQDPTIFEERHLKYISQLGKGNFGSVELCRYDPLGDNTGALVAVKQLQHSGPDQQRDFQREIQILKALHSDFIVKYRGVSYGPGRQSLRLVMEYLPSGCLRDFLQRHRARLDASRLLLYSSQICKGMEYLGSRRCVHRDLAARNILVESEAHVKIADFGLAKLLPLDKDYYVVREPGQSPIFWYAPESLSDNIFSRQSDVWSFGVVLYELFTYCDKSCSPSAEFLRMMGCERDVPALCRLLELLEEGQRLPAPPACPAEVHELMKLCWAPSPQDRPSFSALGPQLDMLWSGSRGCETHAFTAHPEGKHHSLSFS

[8] = biological target: Serine/threonine-protein kinase SIK2 (Homo sapiens) (UniProt Q9H0K1); assay: Inhibition of QIK conserved Lys1 (EVAIKIIDK) in human PBMC at 0.1 uM
[9] = biological target: Interferon-induced, double-stranded RNA-activated protein kinase (Homo sapiens) (UniProt P19525); assay: Inhibition of PKR conserved Lys2 (DLKPSNIFLVDTK) in human PBMC at 0.1 uM

Sequence of Cyclin-dependent kinase 5 (Homo sapiens) (Q00535 whole entry, looked up): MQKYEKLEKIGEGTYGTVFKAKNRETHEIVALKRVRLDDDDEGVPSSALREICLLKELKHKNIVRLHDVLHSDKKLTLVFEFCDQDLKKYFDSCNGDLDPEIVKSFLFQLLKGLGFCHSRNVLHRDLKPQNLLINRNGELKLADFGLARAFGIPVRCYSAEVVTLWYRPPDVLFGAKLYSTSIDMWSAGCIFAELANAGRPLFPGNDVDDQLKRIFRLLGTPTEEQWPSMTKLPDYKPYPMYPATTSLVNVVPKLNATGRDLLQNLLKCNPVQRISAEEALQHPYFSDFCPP

CC(C)n1cc(-c2cc(-c3ccc(CN4CCOCC4)cc3)cnc2N)nn1
inhibition [1]: 8.9% | inhibition [2]: -0.5% | CLint scaled [3]: 157 mL/min/kg | inhibition [4]: 27.4% | inhibition [5]: 14% | inhibition [6]: 12.7% | inhibition [7]: -0.9% | inhibition [8]: -6.7% | inhibition [9]: 13.7%
